Experimental data from patent US20150051231A1, “SYNERGISTIC COMBINATIONS OF TRIAZOLES, STROBILURINS AND BENZIMIDAZOLES, USES, FORMULATIONS, PRODUCTION PROCESSES AND APPLICATIONS USING THE SAME” (FMC Quimica do Brasil Ltda., priority 2010, published 2015).
Where two headings read alike, the source gives them in different places.

Columns and labels:
Format in all cases: in vivo
[1] = test system: Phakopsora pachyrhizi Sydow; assay: Field trial, interactions of fungicides for control of Asian soybean rust, flutriafol series (Tables 2 and 4), Rondonópolis-MT; details: for Control (%) Lower canopy, obtained by AUDPC / Control (%) Upper canopy, obtained by AUDPC: rates g/há ai: Kresoxim-methyl 125, Azoxystrobin 30, Flutriafol 62.5, Flut+Carb+Kresoxim 62.5 + 200 + 125, Flut+Carb+Azoxystrobin 62.5 + 200 + 30, Flut+Carb 62.5 + 200
Procedure: (§1) A study was prepared to analyze the interaction effect using the multiplicative model of distribution proposed by Colby (1967), using Equation 1 below to calculate the expected response: […]
(§2) wherein E is the expected reduction in disease development (such as the reduction in the percentage of expected control or the reduction in the area under the disease-progress curve), and x and y represent the reduction in disease development achieved by treatment with fungicide x and y, respectively.
Regarding the study of the interaction effect for the association of flutriafol+carbendazim+azoxystrobin and flutriafol+carbendazim+kresoxim-methyl, the model proposed by Colby was used.

Corynespora cassiicola = assay: Target spot severity in soybean 14 days after the third application (Table 5), Rondonópolis-MT; details: for Severity (%) C. cassiicola: 14 days after the third application; for control of target spot (C. cassiicola) in soybean crops, in words: isolated use, PrioriXtra under conditions of high disease severity
From the text: (§3) In addition to these benefits, the association of the three fungicides—tebuconazole, carbendazim and azoxystrobin or tebuconazole, carbendazim and kresoxim-methyl provides greater safety regarding protection against the emergence of fungi resistant to fungicides and improved control spectrum.

Colletotrichum truncatum = assay: Anthracnose severity in soybean 14 days after the third application (Table 5), Rondonópolis-MT; details: for Severity (%) C. truncatum: 14 days after the third application; for control of anthracnose (C. truncatum) in soybean crops, in words: isolated use, PrioriXtra under conditions of high disease severity
From the text: as §3

[2] = test system: Phakopsora pachyrhizi Sydow; assay: Field trial, soybean rust AUDPC and yield (Table 6), Rondonópolis-MT
From the text: (§4) The association of azoxystrobin with the tebuconazole+carbendazim mixture provided high control efficacy of rust (see Table 6 below). […] The association of the three fungicides tebuconazole, carbendazim and azoxystrobin provides effective control of target spot (Corynespora cassiicola) and anthracnose (Colletotrichum truncatum) (see Table 5 above), and contains fungicides with three modes of action—carbendazim (benzimidazole)—acting on the integrity of tubulin; tebuconazole (triazole)—sterol synthesis inhibitors; azoxystrobin (strobilurin)—inhibits mitochondrial respiration.
as §4, with “of kresoxim-methyl” for “of azoxystrobin”, “6 above).” for “6 below).”, “and kresoxim-methyl” for “and azoxystrobin”, “[…] (strobilurin)-inhibits” for “azoxystrobin (strobilurin)—inhibits”

[3] = test system: Phakopsora pachyrhizi Sydow; details: three preventive applications from V9
Procedure: This study was conducted to evaluate the efficacy of the products in the control of Asian rust. The start of preventive applications in V9, the second application was made 20 days after the first (in R4) and the third application was made 15 days after the second. Emulsifiable mineral oil Assist was added, at the dose of 0.5% v/v in all treatments, except for the PrioriXtra treatments, in which 0.5% v/v Nimbus was added, and Fox, in which Aureo was added at the dose of 0.4 L/ha.

[4] = test system: Phakopsora pachyrhizi Sydow; assay: Field trial, interactions of fungicides for control of Asian soybean rust, tebuconazole series (Tables 1 and 3), Rondonópolis-MT; details: for control of rust (Phakopsora pachyrhizi Sydow) in soybean crops, in words: isolated use; for Control (%) Lower canopy, obtained by AUDPC / Control (%) Upper canopy, obtained by AUDPC: rates g/ha ai: Kresoxim-methyl 125, Azoxystrobin 30, Tebuconazole 100, Teb+Carb+Kresoxim 100 + 200 + 125, Teb+Carb+Azoxystrobin 100 + 200 + 30, Teb+Carb 100 + 200
From the text: (See Table 1 below), carbendazim even at a dose of 250 g/ha ai, and tebuconazole at the dose of 100 g/ha ai.
The association of azoxystrobin with the tebuconazole+carbendazim mixture (BF 488) provided a control efficacy gain and a residual control effect even under high pressure of Asian rust. […] The addition of azoxystrobin from 6 g/ha ai in the mixture of tebuconazole+carbendazim (100+200 g/ha ai, respectively) has already reflected in rust efficacy gain, providing control similar to the efficacy standard of azoxystrobin+cyproconazole (60+24 g/ha ai, respectively), and this product is marketed by Syngenta as PrioriXtra®. The addition of azoxystrobin in doses of 18, 24 and 30 g/ha ai together with tebuconazole+carbendazim was effective for obtaining yields higher than the market standard containing 60 g/ha of azoxystrobin.
The association of kresoxim-methyl with the tebuconazole+carbendazim mixture (BF 452) provided a control efficacy gain and a residual control effect even under high pressure of Asian rust. […] The addition of kresoxim-methyl from 75 g/ha ai in the mixture of tebuconazole+carbendazim (100+200 g/ha ai, respectively) has already reflected in rust efficacy gain, providing control similar to the efficacy standard of azoxystrobin+cyproconazole (60+24 g/ha ai, respectively), and this product is marketed by Syngenta as PrioriXtra®.
as §1, §2
The possible interaction responses are: • a) antagonism, which is characterized by joint action of two fungicides showing the response of a test organism in their combination that is lower than the expected response, obtained by appropriate reference models, as proposed by Colby (1967); • b) synergism, which is the cooperative action of two fungicides showing a response in the test organism on the joint application that is higher than the expected response obtained by appropriate reference models, and • c) additive, which occurs when two fungicides react by presenting a response in the test organism on the joint application that is equal to the expected response obtained by appropriate reference models.
To use the model proposed by Colby, the association tebuconazole+carbendazim (100+200, respectively) was established for a comparative test with azoxystrobin or kresoxim-methyl and a response of the type of interaction (see Table 3 below).

[5] = test system: Phakopsora pachyrhizi Sydow; details: three preventive applications from R1
Procedure: This study was conducted to evaluate the efficacy of the products in the control of Asian soybean rust. Preventive applications started in R1, with the second application occurring 20 days after the first application and the third application 15 days after the second. Emulsifiable mineral oil Assist was added, at the dose of 0.5% v/v in all treatments, except for the PrioriXtra treatments, in which 0.5% v/v Nimbus was added, and Fox, in which Aureo was added at the dose of 0.4 L/ha.

[6] = test system: Phakopsora pachyrhizi Sydow; details: three preventive applications from R1; remark: listed apart in the source
Procedure: This study was conducted to evaluate the efficacy of the products in the control of Asian soybean rust (Favorita). Preventive applications started in R1, the second application was made 19 days after the first (in R4) and the third application was made 15 days after the second (in R5.3). Emulsifiable mineral oil Assist was added at the dose of 0.5% v/v in all treatments, except for the PrioriXtra treatments, in which 0.5% v/v Nimbus was added. […] The efficacy of BF 452 and BF 465 is consistent, reducing the disease throughout the soybean plant canopy.

[7] = test system: Phakopsora pachyrhizi Sydow; details: three preventive applications from R1; remark: listed apart in the source
Procedure: This study was conducted to evaluate the efficacy of the products in the control of Asian soybean rust (Valiosa). Preventive applications started in R1, the second application was made 19 days after the first (in R5.1) and the third application was made 15 days after the second (in R5.5). Emulsifiable mineral oil Assist was added at the dose of 0.5% v/v in all treatments, except for the PrioriXtra treatments, in which 0.5% v/v Nimbus was added.

Compound: OC(Cn1cncn1)(c1ccc(F)cc1)c1ccccc1F (racemic) [flutriafol, (RS)-2,4′-difluoro-α-(1H-1,2,4-triazol-1-ylmethyl)benzhydryl alcohol]
- control of rust (Phakopsora pachyrhizi Sydow) in soybean crops, in words ([1]; isolated use): not effective in controlling rust
- AUPDC* Lower Canopy ([1]; rate 62.5 g/ha a.i.): 1312.6
- AUPDC* Upper Canopy ([1]; rate 62.5 g/ha a.i.): 1097.2
- Productivity ([1]; rate 62.5 g/ha a.i.): 1578.2 kg/ha
- Control (%) Lower canopy, obtained by AUDPC [1]: 24.0%
- Control (%) Upper canopy, obtained by AUDPC [1]: 26.5%
- Severity (%) C. cassiicola (Corynespora cassiicola; rate 62.5 g/ha a.i.): 22.5%
- control of target spot (C. cassiicola) in soybean crops, in words (Corynespora cassiicola): not effective
- Severity (%) C. truncatum (Colletotrichum truncatum; rate 62.5 g/ha a.i.): 31.3%
- control of anthracnose (C. truncatum) in soybean crops, in words (Colletotrichum truncatum): not effective

Compound: CC(C)(C)C(O)(CCc1ccc(Cl)cc1)Cn1cncn1 (racemic) [tebuconazole, (RS)-1-p-chlorophenyl-4,4-dimethyl-3-(1H-1,2,4-triazol-1-ylmethyl)pentan-3-ol]
- AUPDC* Lower Canopy ([2]; rate 100 g/ha a.i.): 747.4
- AUPDC* Upper Canopy ([2]; rate 100 g/ha a.i.): 227.5
- Productivity ([2]; rate 100 g/ha a.i.): 2570.8 kg/ha
- efficacy in controlling soybean rust, in words [3]: not effective in controlling soybean rust
- control of rust (Phakopsora pachyrhizi Sydow) in soybean crops, in words [4]: not effective in controlling rust
- AUPDC* Lower Canopy ([4]; rate 100 g/ha a.i.): 896.0
- AUPDC* Upper Canopy ([4]; rate 100 g/ha a.i.): 427.0
- Productivity ([4]; rate 100 g/ha a.i.): 2152.0 kg/ha
- Control (%) Lower canopy, obtained by AUDPC [4]: 32%
- Control (%) Upper canopy, obtained by AUDPC [4]: 71%
- efficacy in controlling soybean rust, in words [5]: not effective in controlling soybean rust
- Severity (%) C. cassiicola (Corynespora cassiicola; rate 100 g/ha a.i.): 23.5%
- control of target spot (C. cassiicola) in soybean crops, in words (Corynespora cassiicola): not effective
- efficacy in controlling soybean rust, in words [6]: not effective in controlling soybean rust
- efficacy in controlling soybean rust, in words [7]: not effective in controlling soybean rust
- Severity (%) C. truncatum (Colletotrichum truncatum; rate 100 g/ha a.i.): 30.0%
- control of anthracnose (C. truncatum) in soybean crops, in words (Colletotrichum truncatum): not effective

Compound: COC(=O)Nc1nc2ccccc2[nH]1 [carbendazim]
- AUPDC* Lower Canopy ([1]; rate 250 g/ha a.i.): 1576.3
- AUPDC* Upper Canopy ([1]; rate 250 g/ha a.i.): 1317.0
- Productivity ([1]; rate 250 g/ha a.i.): 1293.0 kg/ha
- AUPDC* Lower Canopy ([2]; rate 250 g/ha a.i.): 361.8
- AUPDC* Upper Canopy ([2]; rate 250 g/ha a.i.): 247.5
- Productivity ([2]; rate 250 g/ha a.i.): 1323.7 kg/ha
- control of rust (Phakopsora pachyrhizi Sydow) in soybean crops, in words [4]: not effective in controlling rust
- AUPDC* Lower Canopy ([4]; rate 250 g/ha a.i.): 261.0
- AUPDC* Upper Canopy ([4]; rate 250 g/ha a.i.): 1148.0
- Productivity ([4]; rate 250 g/ha a.i.): 1324.0 kg/ha

Compound: CO/N=C(/C(=O)OC)c1ccccc1COc1ccccc1C [kresoxim-methyl, methyl(E)-methoxyimino[α-(o-tolyloxy)-o-tolyl]acetate]
- AUPDC* Lower Canopy ([1]; rate 125 g/ha a.i.): 1415.8
- AUPDC* Upper Canopy ([1]; rate 125 g/ha a.i.): 1261.3
- Productivity ([1]; rate 125 g/ha a.i.): 1479.5 kg/ha
- Control (%) Lower canopy, obtained by AUDPC [1]: 18.0%
- Control (%) Upper canopy, obtained by AUDPC [1]: 15.5%
- AUPDC* Lower Canopy ([2]; rate 125 g/ha a.i.): 1245.9
- AUPDC* Upper Canopy ([2]; rate 125 g/ha a.i.): 1074.1
- Productivity ([2]; rate 125 g/ha a.i.): 1848.5 kg/ha
- control of rust (Phakopsora pachyrhizi Sydow) in soybean crops, in words [4]: not effective in controlling rust
- AUPDC* Lower Canopy ([4]; rate 125 g/ha a.i.): 1146.0
- AUPDC* Upper Canopy ([4]; rate 125 g/ha a.i.): 978.0
- Productivity ([4]; rate 125 g/ha a.i.): 1349.0 kg/ha
- Control (%) Lower canopy, obtained by AUDPC [4]: 13%
- Control (%) Upper canopy, obtained by AUDPC [4]: 34%
- Severity (%) C. cassiicola (Corynespora cassiicola; rate 125 g/ha a.i.): 22.3%
- control of target spot (C. cassiicola) in soybean crops, in words (Corynespora cassiicola): not effective
- Severity (%) C. truncatum (Colletotrichum truncatum; rate 125 g/ha a.i.): 19.5%
- control of anthracnose (C. truncatum) in soybean crops, in words (Colletotrichum truncatum): not effective
